Converted amounts (≈) assume the structure as drawn. Counter-ions that a name gives are not always drawn.
Experiments:
2.2.15 cells = assay: Cytotoxicity (TC50) in 2.2.15 cells; type: cell-based
Method: (§1) All compounds were evaluated for their anti-HBV activities, namely the ability to inhibit the replication of HBV DNA and the production of HBsAg and HBeAg in HBV-infected 2.2.15 cells.
(§2) The samples were dissolved in DMSO for appropriate concentrations, and then each was diluted 3-fold with culture medium. The 2.2.15 cells were planted into 96-well culture plates. […] The culture supernatants and 2.2.15 cells were collected respectively on the 8th plant day. The secretion concentrations of HBsAg and HBeAg in the culture supernatants were measured by RIA on SPRIA Kit for Detection of HBsAg and HBeAg (Beijing North Institute of Biological Technology), and the replication of HBV DNA was measured by dot hybridization with a^32PdCTP (FuRui Biological Technology Ltd., China).

HBV DNA = assay: In vitro anti-HBV activity: replication of HBV DNA in 2.2.15 cells (dot hybridization); type: cell-based, Hepatitis B virus (HBV); conditions: for IC50: Hepatitis B virus, read-out: DNA replication IC50; for DNA replication SI: selectivity index
Method: as §1, §2

HIV-1 protease = biological target: T1, HIV-1 protease (Human immunodeficiency virus type 1 group M subtype B, UniProt P04585); assay: Anti-HIV-1 protease activity (fluorescence labeled substrate); type: biochemical; conditions: for inhibition ratio at 0.5 ug/ml: sample concentration 0.5 ug/ml; for inhibition ratio at 2.0 ug/ml: sample concentration 2.0 ug/ml; for inhibition ratio at 10 ug/ml: sample concentration 10 ug/ml; for inhibition ratio at 50 ug/ml: sample concentration 50 ug/ml; for inhibition ratio at 250 ug/ml: sample concentration 250 ug/ml
T1 construct: The genetically engineered target enzyme (HIV-1 protease, preserved at −85° C.)
Method: HIV-1 protease can cut the fluorescence labeled substrate under optimal condition and reaction system, so the activity of enzyme is determined by the fluorescence in the product of enzymatic reaction. The samples are added into the reaction system to observe the inhibitive effect on the enzyme.
The samples and the reference drug Indinavir ([…].) were dissolved in DMSO or redistilled water for appropriate concentration. Each was diluted 5-fold and then added into the buffer containing fluorescence labeled substrate (MP Co.). The genetically engineered target enzyme (HIV-1 protease, preserved at −85° C.) was added to the buffer and incubated under the optimal reaction condition. The fluorescence was determined by FLUO star Galaxy fluorometer.

HBsAg = assay: In vitro anti-HBV activity: HBsAg production in HBV-infected 2.2.15 cells (RIA); type: cell-based, Hepatitis B virus (HBV)
Method: as §1, §2

[1] = test system: influenza A virus, strain A/jifang/90-15; assay: microbe, parasite or virus in culture; type: cell-based; conditions: Influenza strain A/jifang/90-15, MDCK cells, CPE, Reed-Muench

| SMILES | TC50 (2.2.15 cells) | IC50 (HBV DNA) | DNA replication SI (HBV DNA) | inhibition ratio at 0.5 ug/ml (HIV-1 protease) | inhibition ratio at 2.0 ug/ml (HIV-1 protease) | inhibition ratio at 10 ug/ml (HIV-1 protease) | inhibition ratio at 50 ug/ml (HIV-1 protease) | inhibition ratio at 250 ug/ml (HIV-1 protease) | IC50 (HIV-1 protease) | IC50 (HBsAg; Hepatitis B virus, read-out: HBsAg IC50) | HBsAg SI (HBsAg; selectivity index) | IC50 [1] |
| --- | --- | --- | --- | --- | --- | --- | --- | --- | --- | --- | --- | --- |
| CCOC(=O)c1c(CSc2ccc(F)cc2)n(C)c2cc(Br)c(O)c(CN3CCN(C)CC3)c12 [Example 17, Ethyl 6-bromo-5-hydroxy-1-methyl-4-[(4-methyl-1-piperazinyl)methyl]-2-[(4-fluorophenyl)thiomethyl]-1H-indole-3-carboxylate dihydrochloride] | 62.50 µg/mL | 17.8 µg/mL | 3.5 | −6.1 | −8.3 | −13.0 | −17.3 | 27.6 | – | – | – | – |
| CCOC(=O)c1c(CSc2ccc(F)cc2)n(C2CC2)c2cc(Br)c(O)c(CN3CCN(C)CC3)c12 [Example 19, Ethyl 6-bromo-1-cyclopropyl-5-hydroxy-4-[(4-methyl-1-piperazinyl)methyl]-2-[(4-fluorophenyl)thiomethyl]-1H-indole-3-carboxylate dihydrochloride] | 37.04 µg/mL | 13 µg/mL | 2.85 | −5.6 | −8.9 | −8.9 | 20.7 | 63.9 | 232 µM | – | – | – |
| CCOC(=O)c1c(CS(=O)(=O)c2cccc(OC)c2)n(C)c2cc(Br)c(O)c(CN(C)C)c12 [Example 55, Ethyl 6-bromo-4-[(dimethylamino)methyl]-5-hydroxy-1-methyl-2-[(3-methoxyphenyl)sulfonylmethyl]-1H-indole-3-carboxylate] | 21.56 µg/mL (≈ 40 µM) | 2.2 µg/mL (≈ 4.08 µM) | 9.7 | 2.1 | 6.7 | 0.1 | 30.5 | 98.0 | 49 µM | – | – | – |
| CCOC(=O)c1c(C[S+]([O-])c2ccccc2C)n(C)c2cc(Br)c(O)c(CN3CCOCC3)c12 (centres unmarked) [Example 57, Ethyl 6-bromo-5-hydroxy-1-methyl-4-(morpholinomethyl)-2-[(2-methylphenyl)sulfinylmethyl]-1H-indole-3-carboxylate] | 51.53 µg/mL (≈ 93.8 µM) | 17 µg/mL (≈ 30.9 µM) | 3.03 | 6.4 | 9.2 | 1.9 | 15.5 | 41.0 | – | – | – | – |
| CCOC(=O)c1c(C[S+]([O-])c2ccc(F)cc2)n(C)c2cc(Br)c(O)c(CN3CCOCC3)c12 (centres unmarked) [Example 58, Ethyl 6-bromo-5-hydroxy-1-methyl-4-(morpholinomethyl)-2-[(4-fluorophenyl)sulfinylmethyl]-1H-indole-3-carboxylate] | >500 µg/mL | 57.6 µg/mL (≈ 104 µM) | >8.7 | 11.7 | 11.6 | 15.9 | 22.9 | 37.4 | – | – | – | – |
| CCOC(=O)c1c(C[S+]([O-])c2ccc(F)c(F)c2)n(C2CC2)c2cc(Br)c(O)c(CN3CCN(C)CC3)c12 (centres unmarked) [Example 67, Ethyl 6-bromo-1-cyclopropyl-5-hydroxy-4-[(4-methyl-1-piperazinyl)methyl]-2-[(3,4-difluorophenyl)sulfinylmethyl]-1H-indole-3-carboxylate dihydrochloride] | 34.35 µg/mL | 5.4 µg/mL | 6.35 | 3.2 | 10.5 | 9.4 | 0.5 | 19.3 | – | – | – | – |
| CCOC(=O)c1c(CSc2nc3ccccc3[nH]2)n(C)c2cc(Br)c(O)c(Cn3ccnc3)c12.Cl [Example 94, Ethyl 6-bromo-5-hydroxy-4-[(1-imidazolyl)methyl]-1-methyl-2-[(benzo[d]imidazol-2-yl)thiomethyl]-1H-indole-3-carboxylate hydrochloride] | 53.42 µg/mL | – | – | – | – | – | – | – | – | 7.37 µg/mL | 7.25 | – |
| CCOC(=O)c1c(C[S+]([O-])c2ccccc2)n(C)c2cc(Br)c(O)c(Cn3ccnc3)c12 (centres unmarked) [Example 116, Ethyl 6-bromo-5-hydroxy-4-[(1-imidazolyl)methyl]-1-methyl-2-(phenylsulfinylmethyl)-1H-indole-3-carboxylate] | 8.12 µg/mL (≈ 15.7 µM) | 2.56 µg/mL (≈ 4.96 µM) | 3.17 | 0.4 | −2.4 | −1.5 | 11.1 | 37.5 | – | – | – | – |
| CCOC(=O)c1c(C[S+]([O-])c2ccc(F)cc2)n(C2CC2)c2cc(Br)c(O)c(Cn3ccnc3C)c12 (centres unmarked) [Example 138, Ethyl 6-bromo-1-cyclopropyl-5-hydroxy-4-[(2-methyl-1-imidazolyl)methyl]-2-[(4-fluorophenyl)sulfinylmethyl]-1H-indole-3-carboxylate] | 18.52 µg/mL (≈ 32.2 µM) | 5 µg/mL (≈ 8.7 µM) | 3.74 | 6.8 | −2.3 | 6.4 | 12.7 | 75.7 | 111 µM | – | – | – |
| CCOC(=O)c1c(C[S+]([O-])c2ccc(F)cc2)n(C2CC2)c2cc(Br)c(O)c(CNC(=N)N)c12 (centres unmarked) [Example 154, Ethyl 6-bromo-1-cyclopropyl-4-(guanidinylmethyl)-5-hydroxy-2-[(4-fluorophenyl)sulfinylmethyl]-1H-indole-3-carboxylate] | 18.52 µg/mL (≈ 33.6 µM) | 5.2 µg/mL (≈ 9.43 µM) | 3.63 | 3.2 | 13.2 | 4.8 | 19.8 | 109.3 | 43.5 µM | – | – | – |
| CCOC(=O)c1c(CS(=O)(=O)Cc2ccccc2)n(C)c2cc(Br)c(O)c(Cn3ccnc3C)c12 [Example 168, Ethyl 6-bromo-5-hydroxy-1-methyl-4-[(2-methyl-1-imidazolyl)methyl]-2-(benzylsulfonylmethyl)-1H-indole-3-carboxylate] | 35.61 µg/mL (≈ 63.5 µM) | 7.04 µg/mL (≈ 12.6 µM) | 5.06 | – | – | – | – | – | – | – | – | – |
| CCOC(=O)c1c(CS(=O)(=O)Cc2ccccc2)n(C)c2cc(Br)c(O)c(CNC(=N)N)c12 [Example 173, Ethyl 6-bromo-4-(guanidinylmethyl)-5-hydroxy-1-methyl-2-(benzylsulfonylmethyl)-1H-indole-3-carboxylate] | 24.69 µg/mL (≈ 45.9 µM) | 5.04 µg/mL (≈ 9.38 µM) | 4.90 | – | – | – | – | – | – | – | – | – |
| CCOC(=O)c1c(CS(=O)(=O)c2ccc(C(F)(F)F)cc2)n(C)c2cc(Br)c(O)c(Cn3ccnc3C)c12 [Example 180, Ethyl 6-bromo-5-hydroxy-1-methyl-4-[(2-methyl-1-imidazolyl)methyl]-2-[(4-trifluoromethylphenyl)sulfonylmethyl]-1H-indole-3-carboxylate] | 51.36 µg/mL (≈ 83.6 µM) | 3.56 µg/mL (≈ 5.79 µM) | 14.43 | – | – | – | – | – | – | – | – | – |
| CCOC(=O)c1c(C[S+]([O-])Cc2ccccc2F)n(C2CC2)c2cc(Br)c(O)c(Cn3ccnc3C)c12 (centres unmarked) [Example 183, Ethyl 6-bromo-1-cyclopropyl-5-hydroxy-4-[(2-methyl-1-imidazolyl)methyl]-2-[(2-fluorobenzyl)sulfinylmethyl]-1H-indole-3-carboxylate] | 37.04 µg/mL (≈ 62.9 µM) | 3.45 µg/mL (≈ 5.86 µM) | 10.74 | – | – | – | – | – | – | – | – | – |
| CCOC(=O)c1c(C[S+]([O-])Cc2ccc(F)cc2)n(C)c2cc(Br)c(O)c(Cn3ccnc3C)c12 (centres unmarked) [Example 184, Ethyl 6-bromo-5-hydroxy-1-methyl-4-[(2-methyl-1-imidazolyl)methyl]-2-[(4-fluorobenzyl)sulfinylmethyl]-1H-indole-3-carboxylate] | 53.42 µg/mL (≈ 95 µM) | 0.94 µg/mL (≈ 1.67 µM) | 56.83 | – | – | – | – | – | – | – | – | – |
| CCOC(=O)c1c(CS(=O)(=O)Cc2ccc(F)cc2)n(C)c2cc(Br)c(O)c(Cn3ccnc3C)c12 [Example 185, Ethyl 6-bromo-5-hydroxy-1-methyl-4-[(2-methyl-1-imidazolyl)methyl]-2-[(4-fluorobenzyl)sulfonylmethyl]-1H-indole-3-carboxylate] | 12.35 µg/mL (≈ 21.3 µM) | 1.3 µg/mL (≈ 2.25 µM) | 9.5 | – | – | – | – | – | – | – | – | – |
| NC(=O)c1ncn([C@@H]2O[C@H](CO)[C@@H](O)[C@H]2O)n1 [Ribovirin, reference compound] | – | – | – | – | – | – | – | – | – | – | – | >33.81 µg/mL |

— patent US7960427B2, “5-hydroxyindole-3-carboxylate derivatives and uses thereof” (priority 2004, dated 2011)
